This note sets out measurements from patent US20090263521A1, “COMPOSITION FOR THE TREATMENT OF CANCERS AND INHIBITION OF METASTASIS CONTAINING EXTRACTS OR FRACTIONS OF THE MAGNOLIA OBOVATA” (KOREA RESEARCH INSTITUTE OF BIOSCIENCE AND BIOTECHNOLOGY, priority 2008, published 2009).

This series relates to human colon cancer cell line SW620. Put plainly: In vivo anticancer effect, SW620 transplanted nude mice. Also on record: species or system BALB/c nude mice. The method, then:
Female SPF BALB/c nude mice purchased from Charles River, Japan, were used as test animals. They were at 6 weeks and weighed 14-17 g. Before being used for experiments, the test animals were adapted at least one week in a clean animal lab. Temperature of the animal lab was 21±2° C. and humidity was set at 55±5%. Light/dark cycle was automatically regulated as 12/12. The solid feeds for the test animals were radiation sterilized products (Polas International, Seoul, Korea). Drinking water was sterilized by autoclave. Feeds and drinking water were given freely.
For the cancer cell line, human colon cancer cell line SW620 purchased from ATCC, USA and stored at Korean Research Institute of Bioscience and Biotechnology was used. […] On the final day of culture, every cell was collected and counted and the final cell concentration was regulated to 1×10^7 cells/ml by adding saline.
SW620 cancer cells were hypodermically injected in the right armpit in-between the shoulder and the wall of chest by 0.3 ml at the concentration of 3×10^6 cells/mouse. […] Weight changes of the test animals were measured three times per week. Tumor volume was measured 7 times from day 5 to day 20 in every test animal. Precisely, the tumor volume was measured by measuring three dimensions of the tumor using Vernier Caliper and then calculated by the following formula: […]

SMILES strings stand for the structures.

Turning to `COc1cccc2c1C(=O)c1c(O)c3c(c(O)c1C2=O)C[C@@](O)(C(=O)CO)C[C@@H]3O[C@H]1C[C@H](N)[C@H](O)[C@H](C)O1` [adriamycin], the weight loss (adriamycin administered positive control, p<0.001) is reported as 13.1%. This compound returned a tumor growth inhibition (positive control, P<0.001) of 58.0%.
